# In patent US8476434B2, “Protein kinase modulators and method of use” (Amgen Inc., priority 2004, dated 2013):
# Target: T1, LCK KD GST (225-509) (Homo sapiens, UniProt P06239)
# T1 construct: LCK KD GST (225-509); GST
# Assay: LCK Homogenous Time Resolved Fluorescent (HTRF) kinase assay
# Format: biochemical
# Procedure: The LCK HTRF assay begins with LCK in the presence of ATP phosphorylating the biotinylated peptide Gastrin. The reaction incubates for 90 min. To quench the assay detection reagents are added which both stop the reaction by diluting out the enzyme and chelating the metals due to the presence of EDTA. Once the detection reagents are added the assay incubates for 30 min to allow for equilibration of the detection reagents.
# Buffer conditions are as follows: 50 mM HEPES pH 7.5, 50 mM NaCl, 20 mM MgCl, 5 mM MnCl, 2 mM DTT, 0.05% BSA.
# The assay is quenched and stopped with 160 μL of detection reagent. Detection reagents are as follows: Buffer made of 50 mM Tris, pH 7.5, 100 mM NaCl, 3 mM EDTA, 0.05% BSA, 0.1% Tween20.
# The assay plate is read in either a Discovery or a RubyStar.
# T1 sequence (P06239 225-509): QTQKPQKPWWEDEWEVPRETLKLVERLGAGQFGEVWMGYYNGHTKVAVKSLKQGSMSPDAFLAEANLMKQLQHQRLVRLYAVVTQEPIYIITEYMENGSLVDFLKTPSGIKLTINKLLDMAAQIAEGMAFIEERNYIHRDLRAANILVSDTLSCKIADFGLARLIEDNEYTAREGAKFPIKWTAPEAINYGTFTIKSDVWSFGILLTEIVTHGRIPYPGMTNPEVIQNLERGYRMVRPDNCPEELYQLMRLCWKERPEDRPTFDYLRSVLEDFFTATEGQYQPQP
row,IC50 [µM],SMILES
1,< 1,CNc1nccc(-c2cccnc2Oc2cc(C(=O)Nc3cc(C(F)(F)F)ccc3N3CCCCC3)ccc2C)n1
2,< 1,CNc1nccc(-c2cccnc2Oc2cc(C(=O)Nc3cc(C(F)(F)F)ccc3N(C)C3CCN(C)CC3)c(F)cc2C)n1 [2-fluoro-4-methyl-5-((3-(2-(methylamino)-4-pyrimidinyl)-2-pyridinyl)oxy)-N-(2-(methyl(1-methyl-4-piperidinyl)amino)-5-(trifluoromethyl)phenyl)benzamide]
3,< 1,CNc1nccc(-c2cccnc2Oc2ccc(F)c(C(=O)Nc3cc(C(F)(F)F)ccc3N(C)C3CCN(C)C3)c2)n1 (stereo not shown) [2-fluoro-5-((3-(2-(methylamino)-4-pyrimidinyl)-2-pyridinyl)oxy)-N-(2-(methyl(1-methyl-3-pyrrolidinyl)amino)-5-(trifluoromethyl)phenyl)benzamide]
4,< 1,CNc1nccc(-c2cccnc2Oc2ccc(F)c(C(=O)Nc3cccc(C(C)C)c3)c2)n1 [2-fluoro-5-((3-(2-(methylamino)-4-pyrimidinyl)-2-pyridinyl)oxy)-N-(3-(1-methylethyl)phenyl)benzamide]
5,< 1,"CNc1nccc(-c2cccnc2Oc2cccc(NC(=O)c3cc(Cl)cc(Cl)c3)c2)n1 [3,5-dichloro-N-(3-((3-(2-(methylamino)-4-pyrimidinyl)-2-pyridinyl)oxy)phenyl)benzamide]"
6,< 1,"CNc1cc(-c2cccnc2Oc2cc(NC(=O)c3cccc(C(C)C)c3)ccc2C)ccn1 [3-(1-methylethyl)-N-(4-methyl-3-((2′-(methylamino)-3,4′-bipyridin-2-yl)oxy)phenyl)benzamide]"
7,< 1,CCN(CC)CCNc1nccc(-c2cccnc2Oc2cc(C(=O)Nc3cc(C(F)(F)F)ccc3N3CCOCC3)ccc2C)n1 [3-((3-(2-((2-(diethylamino)ethyl)amino)-4-pyrimidinyl)-2-pyridinyl)oxy)-4-methyl-N-(2-(4-morpholinyl)-5-(trifluoromethyl)phenyl)benzamide]
8,< 1,CNc1nccc(-c2cccnc2Oc2cccc(C(=O)Nc3cccc(C(C)C)c3)c2)n1 [3-((3-(2-(methylamino)-4-pyrimidinyl)-2-pyridinyl)oxy)-N-(3-(1-methylethyl)phenyl)benzamide]
9,< 1,"CCNc1ncnc(-c2cccnc2Oc2cc(C(=O)Nc3cccc(C(C)C)c3)ccc2C)n1 [3-((3-(4-(ethylamino)-1,3,5-triazin-2-yl)-2-pyridinyl)oxy)-4-methyl-N-(3-(1-methylethyl)phenyl)benzamide]"
10,< 1,"CC(C)c1cccc(NC(=O)c2cccc(Nc3ncccc3-c3ncnc(N)n3)c2)c1 [3-((3-(4-amino-1,3,5-triazin-2-yl)-2-pyridinyl)amino)-N-(3-(1-methylethyl)phenyl)benzamide]"
11,< 1,CNc1nccc(-c2cc(N(C)CCCN(C)C)cnc2Oc2cc(C(=O)Nc3cccc(C(C)C)c3)ccc2C)n1 [3-((5-((3-(dimethylamino)propyl)(methyl)amino)-3-(2-(methylamino)-4-pyrimidinyl)-2-pyridinyl)oxy)-4-methyl-N-(3-(1-methylethyl)phenyl)benzamide]
12,< 1,CNc1nccc(-c2cccnc2Oc2cc(NC(=O)c3cccc(N(C)C)c3)cc(C(F)(F)F)c2)n1 [3-(dimethylamino)-N-(3-((3-(2-(methylamino)-4-pyrimidinyl)-2-pyridinyl)oxy)-5-(trifluoromethyl)phenyl)benzamide]
13,< 1,CNc1nccc(-c2cccnc2Oc2cc(Br)cc(C(=O)Nc3cc(C(F)(F)F)ccc3N(C)[C@H]3CCN(C)C3)c2)n1 [3-bromo-5-((3-(2-(methylamino)-4-pyrimidinyl)-2-pyridinyl)oxy)-N-(2-(methyl((3S)-1-methyl-3-pyrrolidinyl)amino)-5-(trifluoromethyl)phenyl)benzamide]
14,< 1,CNc1nccc(-c2cccnc2Oc2cc(Br)cc(C(=O)Nc3cccc(C(C)C)c3)c2)n1 [3-bromo-5-((3-(2-(methylamino)-4-pyrimidinyl)-2-pyridinyl)oxy)-N-(3-(1-methylethyl)phenyl)benzamide]
15,< 1,C#Cc1cc(Oc2ncccc2-c2ccnc(NC)n2)cc(C(=O)Nc2cccc(C(F)(F)F)c2)c1 [3-ethynyl-5-((3-(2-(methylamino)-4-pyrimidinyl)-2-pyridinyl)oxy)-N-(3-(trifluoromethyl)phenyl)benzamide]
16,< 1,"CNc1ncnc(-c2cccnc2Oc2cc(F)cc(C(=O)Nc3cccc(C(C)C)c3)c2)n1 [3-fluoro-5-((3-(4-(methylamino)-1,3,5-triazin-2-yl)-2-pyridinyl)oxy)-N-(3-(1-methylethyl)phenyl)benzamide]"
17,< 1,"CNc1nccc(-c2cc(Cl)cnc2Oc2c(C)cccc2C)n1 [4-(5-chloro-2-((2,6-dimethylphenyl)oxy)-3-pyridinyl)-N-methyl-2-pyrimidinamine]"

row,IC50 [µM],SMILES
1,< 1,COc1ccc(C(=O)Nc2cccc(C(F)(F)F)c2)cc1Nc1ncccc1-c1ccncn1 [4-(methyloxy)-3-((3-(4-pyrimidinyl)-2-pyridinyl)amino)-N-(3-(trifluoromethyl)phenyl)benzamide]
2,< 1,CNc1nccc(-c2cccnc2Oc2cc(C(=O)Nc3cc(C(F)(F)F)ccc3N3CCCCC3)ccc2Cl)n1 [4-chloro-3-((3-(2-(methylamino)-4-pyrimidinyl)-2-pyridinyl)oxy)-N-(2-(1-piperidinyl)-5-(trifluoromethyl)phenyl)benzamide]
3,< 1,CNc1nccc(-c2cccnc2Oc2cc(C(=O)Nc3cc(C(F)(F)F)ccc3N3CCCCC3)ccc2F)n1 [4-fluoro-3-((3-(2-(methylamino)-4-pyrimidinyl)-2-pyridinyl)oxy)-N-(2-(1-piperidinyl)-5-(trifluoromethyl)phenyl)benzamide]
4,< 1,"CC(C)c1cccc(NC(=O)c2ccc(F)c(Nc3ncccc3-c3ncnc(NCCCn4ccnc4)n3)c2)c1 [4-fluoro-3-((3-(4-((3-(1H-imidazol-1-yl)propyl)amino)-1,3,5-triazin-2-yl)-2-pyridinyl)amino)-N-(3-(1-methylethyl)phenyl)benzamide]"
5,< 1,"COc1cc(-c2cccnc2Oc2cc(C(=O)Nc3cccc(C(F)(F)F)c3)ccc2C)ccn1 [4-methyl-3-((2′-(methyloxy)-3,4′-bipyridin-2-yl)oxy)-N-(3-(trifluoromethyl)phenyl)benzamide]"
6,< 1,CNc1nccc(-c2cccnc2Oc2cc(C(=O)Nc3cc(OC[C@H]4CCCN4C)cc(C(F)(F)F)c3)ccc2C)n1 [4-methyl-3-((3-(2-(methylamino)-4-pyrimidinyl)-2-pyridinyl)oxy)-N-(3-((((2R)-1-methyl-2-pyrrolidinyl)methyl)oxy)-5-(trifluoromethyl)phenyl)benzamide]
7,< 1,CNc1nccc(-c2cccnc2Oc2cc(C(=O)Nc3cccc(OCc4ccccc4)c3)ccc2C)n1 [4-methyl-3-((3-(2-(methylamino)-4-pyrimidinyl)-2-pyridinyl)oxy)-N-(3-((phenylmethyl)oxy)phenyl)benzamide]
8,< 1,CNc1nccc(-c2cccnc2Oc2cc(C(=O)Nc3cccc(Cc4ccccc4)c3)ccc2C)n1 [4-methyl-3-((3-(2-(methylamino)-4-pyrimidinyl)-2-pyridinyl)oxy)-N-(3-(phenylmethyl)phenyl)benzamide]
9,< 1,CNc1nccc(-c2cccnc2Oc2cc(C(=O)Nc3ccc(C(C)C)cc3)ccc2C)n1 [4-methyl-3-((3-(2-(methylamino)-4-pyrimidinyl)-2-pyridinyl)oxy)-N-(4-(1-methylethyl)phenyl)benzamide]
10,< 1,"CNc1nccc(-c2cccnc2Oc2cc(C(=O)Nc3cc(-c4ccccc4)ccc3OC)ccc2C)n1 [4-methyl-3-((3-(2-(methylamino)-4-pyrimidinyl)-2-pyridinyl)oxy)-N-(4-(methyloxy)-1,1′-biphenyl-3-yl)benzamide]"
11,< 1,CNc1nccc(-c2cccnc2Oc2cc(C(=O)N[C@H](C)c3ccccc3)ccc2C)n1 [4-methyl-3-((3-(2-(methylamino)-4-pyrimidinyl)-2-pyridinyl)oxy)-N-((1R)-1-phenylethyl)benzamide]
12,< 1,CNc1nccc(-c2cccnc2Oc2cc(C(=O)NCc3cccc(C(F)(F)F)c3)ccc2C)n1 [4-methyl-3-((3-(2-(methylamino)-4-pyrimidinyl)-2-pyridinyl)oxy)-N-((3-(trifluoromethyl)phenyl)methyl)benzamide]
13,< 1,CNc1nccc(-c2cc(N3CCN(C)CC3)cnc2Oc2cc(C(=O)Nc3cccc(C(C)C)c3)ccc2C)n1 [4-methyl-3-((3-(2-(methylamino)-4-pyrimidinyl)-5-(4-methyl-1-piperazinyl)-2-pyridinyl)oxy)-N-(3-(1-methylethyl)phenyl)benzamide]
14,< 1,CNc1nccc(-c2cc(N3CCOCC3)cnc2Oc2cc(C(=O)Nc3cccc(C(C)C)c3)ccc2C)n1 [4-methyl-3-((3-(2-(methylamino)-4-pyrimidinyl)-5-(4-morpholinyl)-2-pyridinyl)oxy)-N-(3-(1-methylethyl)phenyl)benzamide]
15,< 1,"CNc1ncnc(-c2cccnc2Oc2cc(C(=O)Nc3cc(C(F)(F)F)ccc3N3CCCCC3)ccc2C)n1 [4-methyl-3-((3-(4-(methylamino)-1,3,5-triazin-2-yl)-2-pyridinyl)oxy)-N-(2-(1-piperidinyl)-5-(trifluoromethyl)phenyl)benzamide]"
16,< 1,"CNc1ncnc(-c2cccnc2Oc2cc(C(=O)Nc3cccc(C(F)(F)F)c3C)ccc2C)n1 [4-methyl-3-((3-(4-(methylamino)-1,3,5-triazin-2-yl)-2-pyridinyl)oxy)-N-(2-methyl-3-(trifluoromethyl)phenyl)benzamide]"
17,< 1,"CNc1ncnc(-c2cccnc2Oc2cc(C(=O)Nc3cccc(C(C)C)c3)ccc2C)n1 [4-methyl-3-((3-(4-(methylamino)-1,3,5-triazin-2-yl)-2-pyridinyl)oxy)-N-(3-(1-methylethyl)phenyl)benzamide]"
